Measurements from article PMC6720883, “In Vitro Inhibitory Effects of APINACA on Human Major Cytochrome P450, UDP-Glucuronosyltransferase Enzymes, and Drug Transporters” (Molecules, 2019).

Assays:
[1] = biological target: T1, OCT2 (Homo sapiens, UniProt O15244); experiment: Uptake of [3-H]methyl-4-phenylpyridinium in HEK293-OCT2 cells; type: in vitro ADME; details: for Transport Rate (pmol/min) (mean ± SD): 0.1 μM probe substrate, n=3
T1 construct: host or cells: HEK293 (transient overexpression)
T1 sequence (O15244 1-555): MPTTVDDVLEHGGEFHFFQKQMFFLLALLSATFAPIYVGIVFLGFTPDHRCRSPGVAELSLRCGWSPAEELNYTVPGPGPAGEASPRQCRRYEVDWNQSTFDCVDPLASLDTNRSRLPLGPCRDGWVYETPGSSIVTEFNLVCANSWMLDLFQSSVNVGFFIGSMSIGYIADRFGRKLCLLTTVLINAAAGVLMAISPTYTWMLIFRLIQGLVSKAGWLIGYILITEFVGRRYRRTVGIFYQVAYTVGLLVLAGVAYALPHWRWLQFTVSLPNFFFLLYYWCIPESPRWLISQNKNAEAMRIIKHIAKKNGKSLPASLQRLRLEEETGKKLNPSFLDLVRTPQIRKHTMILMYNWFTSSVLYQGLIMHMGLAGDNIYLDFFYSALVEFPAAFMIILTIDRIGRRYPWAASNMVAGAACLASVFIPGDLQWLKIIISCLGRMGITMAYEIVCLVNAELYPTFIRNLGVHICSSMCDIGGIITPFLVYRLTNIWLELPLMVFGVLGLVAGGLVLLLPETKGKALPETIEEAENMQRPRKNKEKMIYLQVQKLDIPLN
Protocol: (§1) To examine the effects of APINACA and typical inhibitors on transporter activity, the uptake of a probe substrate into HEK293 cells overexpressing the respective solute carrier transporters was measured in the presence of APINACA (final concentrations of 0–250 μM) or typical inhibitors for 5 min. The concentrations and probe substrates were selected as follows: 0.1 μM [3-H]MPP^+ (for OCT1 and OCT2), 0.1 μM [3-H]PAH (for OAT1), 0.1 μM [3-H]ES (for OAT3 and OATP1B1), and 0.1 μM [3-H]EG (for OATP1B3).
(§2) 12.5 (Systat Software, Inc.; San Jose, CA, USA). […] 1.1 (Systat Software, Inc.).

[2] = biological target: T2, BCRP (Homo sapiens, UniProt Q9UNQ0); experiment: B to A transport of [3-H]estrone-3-sulfate in LLC-PK1-BCRP cells; type: in vitro ADME; details: human, LLC-PK1-BCRP cell monolayers on filter membranes, probe [3H]estrone-3-sulfate (0.1 μM); LLC-PK1-BCRP cells; B to A transport of 0.1 μM [3-H]estrone-3-sulfate; read-out: IC50 for inhibition of BCRP transport
T2 sequence (Q9UNQ0 1-655): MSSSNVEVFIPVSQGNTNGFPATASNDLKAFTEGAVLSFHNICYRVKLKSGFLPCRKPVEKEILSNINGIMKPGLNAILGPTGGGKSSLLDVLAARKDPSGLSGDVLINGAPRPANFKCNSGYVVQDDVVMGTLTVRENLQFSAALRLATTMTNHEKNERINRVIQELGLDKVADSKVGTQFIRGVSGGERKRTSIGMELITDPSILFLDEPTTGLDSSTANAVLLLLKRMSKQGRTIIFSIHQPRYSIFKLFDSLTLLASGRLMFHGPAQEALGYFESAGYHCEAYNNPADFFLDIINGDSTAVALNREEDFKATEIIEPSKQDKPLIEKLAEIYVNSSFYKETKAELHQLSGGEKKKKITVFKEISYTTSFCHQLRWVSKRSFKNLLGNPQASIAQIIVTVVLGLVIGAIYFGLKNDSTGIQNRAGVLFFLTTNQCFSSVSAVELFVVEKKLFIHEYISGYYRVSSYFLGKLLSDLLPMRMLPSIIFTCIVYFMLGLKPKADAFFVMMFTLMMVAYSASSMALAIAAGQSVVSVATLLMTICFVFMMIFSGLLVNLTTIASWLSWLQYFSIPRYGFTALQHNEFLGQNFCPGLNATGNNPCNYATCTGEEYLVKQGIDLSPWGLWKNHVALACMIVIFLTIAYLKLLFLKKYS

[3] = biological target: T3, OCT1 (Homo sapiens, UniProt O15245); experiment: Uptake of [3-H]methyl-4-phenylpyridinium in HEK293-OCT1 cells; type: in vitro ADME; details: for Transport Rate (pmol/min) (mean ± SD): 0.1 μM probe substrate, n=3
T3 construct: host or cells: HEK293 (transient overexpression)
T3 sequence (O15245 1-554): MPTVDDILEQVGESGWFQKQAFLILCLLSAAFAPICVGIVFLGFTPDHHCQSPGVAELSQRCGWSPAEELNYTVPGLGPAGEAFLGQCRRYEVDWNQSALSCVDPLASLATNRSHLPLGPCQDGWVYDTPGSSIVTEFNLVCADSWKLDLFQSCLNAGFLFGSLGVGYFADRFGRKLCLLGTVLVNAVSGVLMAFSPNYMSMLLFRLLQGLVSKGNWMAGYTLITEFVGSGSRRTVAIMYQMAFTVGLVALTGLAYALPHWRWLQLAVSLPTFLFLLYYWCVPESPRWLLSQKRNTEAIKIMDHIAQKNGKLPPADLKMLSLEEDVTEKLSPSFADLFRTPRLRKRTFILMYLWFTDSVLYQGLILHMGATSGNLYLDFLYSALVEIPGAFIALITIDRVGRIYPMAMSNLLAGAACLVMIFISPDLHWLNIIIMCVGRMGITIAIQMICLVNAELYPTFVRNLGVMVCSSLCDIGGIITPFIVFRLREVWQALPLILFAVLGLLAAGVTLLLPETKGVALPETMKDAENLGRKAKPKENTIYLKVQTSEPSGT
Protocol: as §1, §2

[4] = biological target: T4, UGT1A9 (Homo sapiens, UniProt O60656); details: read-out: Ki for inhibition of UGT1A9 activities; recombinant and human liver microsomal UGT1A9; cited from earlier work
T4 sequence (O60656 26-530): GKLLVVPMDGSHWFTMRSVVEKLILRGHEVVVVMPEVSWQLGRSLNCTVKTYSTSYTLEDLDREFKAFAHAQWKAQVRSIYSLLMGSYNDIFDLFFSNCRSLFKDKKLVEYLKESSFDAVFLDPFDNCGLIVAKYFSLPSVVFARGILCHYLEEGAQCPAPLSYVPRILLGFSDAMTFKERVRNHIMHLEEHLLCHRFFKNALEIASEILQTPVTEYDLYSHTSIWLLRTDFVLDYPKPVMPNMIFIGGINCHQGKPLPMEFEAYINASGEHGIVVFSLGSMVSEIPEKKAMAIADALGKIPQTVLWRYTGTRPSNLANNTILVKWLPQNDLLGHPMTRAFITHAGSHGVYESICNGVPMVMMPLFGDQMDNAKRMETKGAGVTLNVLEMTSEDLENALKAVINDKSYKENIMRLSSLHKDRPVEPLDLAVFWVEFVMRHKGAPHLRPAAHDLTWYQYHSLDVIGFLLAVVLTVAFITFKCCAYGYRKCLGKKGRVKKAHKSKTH

[5] = biological target: P-glycoprotein (P-gp) (Homo sapiens, UniProt P08183); experiment: B to A transport of [3-H]digoxin in LLC-PK1-MDR1 cells; details: for Transport Rate (pmol/min) (mean ± SD): 0.1 μM probe substrate, B to A, n=3
Chain of P-glycoprotein (P-gp) (P08183 whole entry): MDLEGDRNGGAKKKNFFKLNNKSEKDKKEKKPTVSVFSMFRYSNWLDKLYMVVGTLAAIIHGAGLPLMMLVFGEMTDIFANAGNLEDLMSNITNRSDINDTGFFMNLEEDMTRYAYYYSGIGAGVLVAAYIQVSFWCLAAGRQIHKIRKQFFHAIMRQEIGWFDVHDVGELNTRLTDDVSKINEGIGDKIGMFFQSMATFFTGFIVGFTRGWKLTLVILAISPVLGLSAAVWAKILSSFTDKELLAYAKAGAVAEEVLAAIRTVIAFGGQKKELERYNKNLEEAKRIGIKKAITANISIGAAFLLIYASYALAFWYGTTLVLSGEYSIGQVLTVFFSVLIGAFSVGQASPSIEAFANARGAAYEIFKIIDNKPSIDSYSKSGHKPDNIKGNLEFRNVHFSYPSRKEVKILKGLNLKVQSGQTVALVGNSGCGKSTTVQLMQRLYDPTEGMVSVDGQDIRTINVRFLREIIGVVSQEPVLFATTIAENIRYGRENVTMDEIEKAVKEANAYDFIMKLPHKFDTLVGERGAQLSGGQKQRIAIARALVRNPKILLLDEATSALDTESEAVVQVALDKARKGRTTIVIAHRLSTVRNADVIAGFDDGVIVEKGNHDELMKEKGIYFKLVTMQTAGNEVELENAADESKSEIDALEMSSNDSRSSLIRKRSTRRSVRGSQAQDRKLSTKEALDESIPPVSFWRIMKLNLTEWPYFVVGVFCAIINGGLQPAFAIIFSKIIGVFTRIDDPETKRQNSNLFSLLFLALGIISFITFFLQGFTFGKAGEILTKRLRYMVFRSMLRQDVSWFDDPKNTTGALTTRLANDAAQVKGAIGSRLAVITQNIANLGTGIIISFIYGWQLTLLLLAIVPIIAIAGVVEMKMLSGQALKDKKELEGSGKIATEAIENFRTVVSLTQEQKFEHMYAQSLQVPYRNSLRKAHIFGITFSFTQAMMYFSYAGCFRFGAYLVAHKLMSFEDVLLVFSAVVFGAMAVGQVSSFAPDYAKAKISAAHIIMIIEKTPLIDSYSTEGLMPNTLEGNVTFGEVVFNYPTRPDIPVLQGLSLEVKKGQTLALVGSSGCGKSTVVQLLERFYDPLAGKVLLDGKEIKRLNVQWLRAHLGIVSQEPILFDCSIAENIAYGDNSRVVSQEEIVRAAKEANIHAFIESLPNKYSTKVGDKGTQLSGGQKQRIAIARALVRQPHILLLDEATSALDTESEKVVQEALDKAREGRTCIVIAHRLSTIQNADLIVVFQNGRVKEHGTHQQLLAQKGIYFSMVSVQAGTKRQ
Protocol: The cells were seeded onto filter membranes at a density of 2 × 10^5 cells/well for 5 days with TEER values over 450 Ω·cm^2. The B to A transport of 0.1 μM [3-H]digoxin in LLC-PK1-MDR1 cells was measured by adding 1.5 mL of HBSS containing APINACA (final concentrations of 0–100 μM) on the basal side and by adding 0.5 mL of HBSS without APINACA on the apical side of the insert using protocols identical to those described above.
1.1 (Systat Software, Inc.).

Q: Which IC50 ([1]; HEK293-OCT2 cells, 0.1 μM [3-H]methyl-4-phenylpyridinium, 5 min uptake, read-out: IC50 for inhibition of OCT2 transport) does the source give for CN/C(=N/CCSCc1nc[nH]c1C)NC#N [Cimetidine] here?
A: 197 µM

Q: Which IC50 [2] does the source give for O=C(O)c1cc(/N=N/c2ccc(S(=O)(=O)Nc3ccccn3)cc2)ccc1O [sulfasalazine] here?
A: 390 nM

Q: Which “Fold Increase of transport rate” value ([3]; HEK293-OCT1 versus Mock) does the source give for C[n+]1ccc(-c2ccccc2)cc1 [Methyl-4-phenylpyridinium] here?
A: 17.1

Q: What about the “Transport Rate (pmol/min) (mean ± SD)” value ([3]; HEK293 Mock cells (comparison for OCT1)) of the same molecule?
A: 0.60 ± 0.09 pmol/min

Q: And the “Transport Rate (pmol/min) (mean ± SD)” value ([3]; HEK293 cells overexpressing OCT1)?
A: 10.24 ± 0.98 pmol/min

Q: What about the “Fold Increase of transport rate” value ([1]; HEK293-OCT2 versus Mock) of the same molecule?
A: 25.5

Q: And the “Transport Rate (pmol/min) (mean ± SD)” value ([1]; HEK293 Mock cells (comparison for OCT2))?
A: 0.66 ± 0.11 pmol/min

Q: What about the “Transport Rate (pmol/min) (mean ± SD)” value ([1]; HEK293 cells overexpressing OCT2) of the same molecule?
A: 16.78 ± 0.43 pmol/min

Q: For Cc1ccc([C@@H]2O[C@H](CO)[C@@H](O)[C@H](O)[C@H]2O)cc1Cc1ccc(-c2ccc(F)cc2)s1 [canagliflozin], which Ki [4] is on record?
A: 1400 to 3000 nM

Q: Which “Fold Increase of transport rate” value ([5]; LLC-PK1-MDR1 versus Mock) does the source give for C[C@H]1O[C@@H](O[C@H]2[C@@H](O)C[C@H](O[C@H]3[C@@H](O)C[C@H](O[C@H]4CC[C@@]5(C)[C@H](CC[C@@H]6[C@@H]5C[C@@H](O)[C@]5(C)[C@@H](C7=CC(=O)OC7)CC[C@]65O)C4)O[C@@H]3C)O[C@@H]2C)C[C@H](O)[C@@H]1O [Digoxin] here?
A: 7.3

Q: What about the “Transport Rate (pmol/min) (mean ± SD)” value ([5]; LLC-PK1 Mock cells (comparison for MDR1)) of the same molecule?
A: 0.14 ± 0.02 pmol/min

Q: And the “Transport Rate (pmol/min) (mean ± SD)” value ([5]; LLC-PK1 cells overexpressing MDR1 (P-gp))?
A: 1.06 ± 0.07 pmol/min
